What was measured:
[1] = target: Recombinant human trypsin (Homo sapiens, UniProt P07477); assay: biochemical; conditions: read-out: Trypsin % inhibition at 99 μM
Description: Enzymatic assay. […] Selected compounds were also screened against other serine proteases to evaluate their selectivity profiles.
Once the compounds were synthesized and characterized, enzymatic assays were performed to evaluate the inhibitory activity of the resulting compounds against FXIa and other serine proteases. […] IC50 values for the compounds were determined using equation: Q= V/(1+([I]/IC50)^n) Q denotes the assay readout, V denotes the uninhibited velocity of the enzyme, [I] denotes the inhibitor concentration, n denotes the slope and IC50 is the inhibitor concentration at V/2.
Trypsin. Recombinant human trypsin was from Polymun, Vienna, Austria.

[2] = system: FXa, thrombin, trypsin, plasma kallikrein (PKK), FIXa, tissue plasminogen activator (tPA) and plasmin; assay: Serine protease selectivity panel (statements on the whole panel); type: biochemical, human; conditions: relative to FXIa
Description: Enzymatic assay. […] Selected compounds were also screened against other serine proteases to evaluate their selectivity profiles. All protease activities were determined by chromogenic assays monitoring the release of para-nitroanilide at 405 nm.
It is important to achieve potent FXIa inhibitors with high selectivity vs. other serine proteases in order to minimize risk for adverse effects, particularly with regard to bleeding, which limits the utility of current antithrombotic drugs, e.g. dabigatran and rivaroxaban. Selectivity data for FXa, thrombin, trypsin, plasma kallikrein (PKK), FIXa, tissue plasminogen activator (tPA) and plasmin were therefore generated and are summarized in Fig. 6. […].
Once the compounds were synthesized and characterized, enzymatic assays were performed to evaluate the inhibitory activity of the resulting compounds against FXIa and other serine proteases. All protease activities were determined by chromogenic assays monitoring the release of para-nitroanilide at 405 nm. IC50 values for the compounds were determined using equation: Q= V/(1+([I]/IC50)^n) Q denotes the assay readout, V denotes the uninhibited velocity of the enzyme, [I] denotes the inhibitor concentration, n denotes the slope and IC50 is the inhibitor concentration at V/2.

[3] = Chromatographic determination of lipophilicity; type: physicochemical; conditions: reversed-phase UPLC, Waters BEH C18 stationary phase, pH 7.4; measured by liquid chromatography, pH7.4
Text: The chromatographic data was obtained utilizing a Waters Aquity UPLC chromatographic system running a gradient from 5–95% acetonitrile at pH7.4. The stationary phase was a Waters BEH C18 2.1x50 mm. Standardized retention data were obtained by normalization against a set of compounds with precisely determined (octanol/water) logD-values. Lipophilicity values for samples were derived from a corresponding calibration curve.

Caco2 cells = assay: Caco2 permeability; type: in vitro ADME; conditions: measured at pH 6.5
Description: A monolayer of Caco2 cells, cultured on semi-permeable polycarbonate surfaces, was used to study the permeability in the apical to basolateral direction. The process was atomized by a robotic Tecan EVO platform (Männerdorf, Switzerland) and 24-transwell plates from Costar (Cambridge, MA, USA). HBSS buffer pH 7.4 was dispensed to the basal side of the monolayer. […] Samples for quantitative analysis by LC/MS/MS were withdrawn before the addition of the test substrate and at 45 and 120 min post addition of the test substrate. During incubation the transwell plates were placed in a shaking incubator at 37°C between sampling. The peak areas were exported to Excel where Papp-values and recoveries were calculated. Twenty-two reference compounds with known human oral bioavailability were used to establish a correlation curve with Papp versus the fraction of the oral dose absorbed (fa).

Caco2 efflux = type: in vitro ADME; conditions: human, Caco-2; Caco2, Papp B to A / Papp A to B, pH 7.4 at side A
Text: Efflux was studied in the same Caco2 cells with the modification that HBSS buffer pH 7.4 was used on both sides of the monolayer. The permeability was studied in the apical to basolateral direction (Papp AB) as well as in the basolateral to apical direction and (Papp BA). Efflux ratios were derived from the following equation: Papp BA/Papp AB.

SMILES: O=C(N[C@@H](Cc1ccccc1)C(=O)NCc1cc(=O)[nH]c2ccc(Cl)cc12)c1ccc2[nH]c(=O)cc(O)c2c1 [Compound 13, (S)-N-(1-{(6-Chloro-2-oxo-1,2-dihydroquinolin-4-yl)methylamino}-1-oxo-3-phenylpropan-2-yl)-4-hydroxy-2-oxo-1,2-dihydroquinoline-6-carboxamide]
- inhibition at 99 µM [1]: 12%
- selectivity vs. all proteases in the panel, except PKK [2]: more than five orders of magnitude selectivity
- chromatographic logD [3]: 0.87
- Caco2 A to B permeability (Caco2 cells): < 0.28 1·10^-6 cm/s
- efflux ratio (Caco2 efflux): > 4.6

— publication PMC4309560, “Creating Novel Activated Factor XI Inhibitors through Fragment Based Lead Generation and Structure Aided Drug Design” (PLoS ONE, 2015)
